Source: ChEMBL document CHEMBL4052827, “Discovery of Tetrahydroisoquinoline-Containing CXCR4 Antagonists with Improved in Vitro ADMET Properties” (J Med Chem, 2018)

Key:
[1] = biological target: T1, C-X-C chemokine receptor type 4 (Homo sapiens, UniProt P61073); experiment: Antagonist activity at human CXCR4 in CCRF-CEM cells assessed as decrease in SDF-1alpha stimulated Ca2+ flux preincubated for 25 mins followed by SDF-1alpha addition measured for 90 secs by calcium dye-based fluorescence assay; type: functional, cell-based
[2] = Antagonist activity at mAChR in human CCRF-CEM cells assessed as decrease in acetylacholine-stimulated Ca2+ flux preincubated for 25 mins followed by acetylacholine addition measured for 90 secs by calcium dye-based fluorescence assay; type: cell-based
[3] = Permeability of the compound at pH 7.4 at 100 uM after 4 hrs by PAMPA
[4] = Permeability of the compound at pH 5.5 at 100 uM after 4 hrs by PAMPA
Cytochrome P450 2D6 = Cytochrome P450 2D6 (Homo sapiens, UniProt P10635); experiment: Inhibition of recombinant human CYP2D6 expressed in microsomes of insect cells using AMMC as substrate preincubated for 30 mins followed by NADP addition after 45 mins by fluorescence analysis
[5] = Metabolic stability in human liver microsomes assessed as parent compound remaining at 0.5 uM after 10 mins in presence of NADPH by LC-MS/MS analysis
[6] = Metabolic stability in mouse liver microsomes assessed as parent compound remaining at 0.5 uM after 10 mins in presence of NADPH by LC-MS/MS analysis
[7] = biological target: T1, C-X-C chemokine receptor type 4; experiment: Agonist activity at CXCR4 in human CCRF-CEM cells assessed as induction of Ca2+ flux measured for 90 secs by calcium dye-based fluorescence assay; type: functional, cell-based
[8] = Agonist activity at mAChR in human CCRF-CEM cells assessed as induction of Ca2+ flux measured for 90 secs by calcium dye-based fluorescence assay; type: cell-based
Cytochrome P450 3A4 = Cytochrome P450 3A4 (Homo sapiens, UniProt P08684); experiment: Inhibition of CYP3A4 (unknown origin)
Chain of Cytochrome P450 3A4 (P08684 whole entry): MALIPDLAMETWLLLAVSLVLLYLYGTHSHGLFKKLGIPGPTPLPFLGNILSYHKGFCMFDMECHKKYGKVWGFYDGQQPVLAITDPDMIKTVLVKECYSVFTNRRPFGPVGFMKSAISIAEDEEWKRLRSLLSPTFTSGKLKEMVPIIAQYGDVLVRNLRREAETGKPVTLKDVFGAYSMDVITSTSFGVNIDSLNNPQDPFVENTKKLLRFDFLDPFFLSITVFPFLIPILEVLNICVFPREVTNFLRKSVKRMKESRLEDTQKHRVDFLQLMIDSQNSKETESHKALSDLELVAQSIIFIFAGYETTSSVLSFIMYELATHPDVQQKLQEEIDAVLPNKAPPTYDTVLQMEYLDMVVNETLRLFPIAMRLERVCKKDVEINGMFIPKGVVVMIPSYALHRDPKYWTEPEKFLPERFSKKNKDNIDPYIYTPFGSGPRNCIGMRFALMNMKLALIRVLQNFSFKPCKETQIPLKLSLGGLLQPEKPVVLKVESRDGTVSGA

T1 sequence (P61073 whole entry): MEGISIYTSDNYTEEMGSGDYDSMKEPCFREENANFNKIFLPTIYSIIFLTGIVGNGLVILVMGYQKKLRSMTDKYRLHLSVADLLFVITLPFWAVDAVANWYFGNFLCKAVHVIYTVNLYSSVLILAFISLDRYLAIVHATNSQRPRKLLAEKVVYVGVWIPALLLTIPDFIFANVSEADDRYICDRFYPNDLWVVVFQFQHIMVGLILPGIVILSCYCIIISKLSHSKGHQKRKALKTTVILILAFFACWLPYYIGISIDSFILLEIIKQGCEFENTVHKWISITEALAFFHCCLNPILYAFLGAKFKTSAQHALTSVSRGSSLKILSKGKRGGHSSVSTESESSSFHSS
Chain of Cytochrome P450 2D6 (P10635 whole entry): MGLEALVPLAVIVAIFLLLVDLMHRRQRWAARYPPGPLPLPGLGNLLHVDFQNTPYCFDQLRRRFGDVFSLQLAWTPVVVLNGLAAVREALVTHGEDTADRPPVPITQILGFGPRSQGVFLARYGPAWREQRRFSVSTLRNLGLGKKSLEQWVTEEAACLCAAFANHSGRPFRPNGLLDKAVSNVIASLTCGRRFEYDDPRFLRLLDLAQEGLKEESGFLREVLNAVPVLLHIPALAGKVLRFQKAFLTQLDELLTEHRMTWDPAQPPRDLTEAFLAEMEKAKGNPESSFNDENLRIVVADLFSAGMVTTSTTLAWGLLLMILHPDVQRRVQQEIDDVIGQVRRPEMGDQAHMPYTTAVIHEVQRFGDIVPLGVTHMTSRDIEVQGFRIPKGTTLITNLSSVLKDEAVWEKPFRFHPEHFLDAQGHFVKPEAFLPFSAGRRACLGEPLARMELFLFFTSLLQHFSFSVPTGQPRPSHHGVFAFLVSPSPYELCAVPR

Row | Structure (SMILES) | IC50 [1] | IC50 [2] | Papp at 4 h, 100 µM [3] | Papp at 4 h, 100 µM [4] | IC50 (Cytochrome P450 2D6) | remaining at 10 min, 0.5 µM [5] | remaining at 10 min, 0.5 µM [6] | EC50 [7] | EC50 [8] | IC50 (Cytochrome P450 3A4)
1 | NC/C=C\CN(C[C@H]1Cc2ccccc2CN1)[C@H]1CCCc2cccnc21 | 0.00926 µM | 0.605 µM | 56.9 ×10⁻⁶ cm/s | 3.9 ×10⁻⁶ cm/s | 0.333 µM | 100% | 4.36% | > 30 µM | > 30 µM | 
2 | c1ccc2c(c1)CN[C@@H](CN(CCCCNC1CCSCC1)[C@H]1CCCc3cccnc31)C2 | 0.0547 µM | > 33.3 µM | 0.2 ×10⁻⁶ cm/s | 4.6 ×10⁻⁶ cm/s | 0.434 µM | 39.9% | 23.2% | > 30 µM | > 30 µM | 
3 | FC1(F)CCC(NC/C=C/CN(C[C@H]2Cc3ccccc3CN2)[C@H]2CCCc3cccnc32)CC1 |  | 6.98 µM | 4.9 ×10⁻⁶ cm/s | 0.9 ×10⁻⁶ cm/s | 1.45 µM | 31.7% | 2.12% | > 30 µM | > 30 µM | 
4 | CC(C)(N)CCCN(C[C@H]1Cc2ccccc2CN1)[C@H]1CCCc2cccnc21 | 0.0246 µM | > 16.7 µM |  | 2 ×10⁻⁶ cm/s | 0.345 µM | 73.5% | 3.32% | > 30 µM | > 30 µM | > 20 µM
5 | c1ccc(CN(CCCCN(C[C@H]2Cc3ccccc3CN2)[C@H]2CCCc3cccnc32)Cc2ccccn2)nc1 | 0.664 µM | 12.9 µM | 29.4 ×10⁻⁶ cm/s | 4.8 ×10⁻⁶ cm/s | 1.16 µM | 0.548% | 0.374% | > 30 µM | > 30 µM | 
6 | CC(C)(CCN)CN(C[C@H]1Cc2ccccc2CN1)[C@H]1CCCc2cccnc21 | > 33.3 µM | > 33.3 µM | 25.5 ×10⁻⁶ cm/s | 26.8 ×10⁻⁶ cm/s | 0.197 µM | 76.1% | 5.22% | > 30 µM | > 30 µM | 10.8 µM
7 | FC1(F)CCC(NCc2ccc(CN(C[C@H]3Cc4ccccc4CN3)[C@H]3CCCc4cccnc43)cc2)CC1 |  | > 16.7 µM | 0.5 ×10⁻⁶ cm/s |  | 0.577 µM | 10.8% | 30.2% | > 30 µM | > 30 µM | 
8 | c1ccc2c(c1)CN[C@@H](CN(Cc1ccc(CNC3CCOCC3)cc1)[C@H]1CCCc3cccnc31)C2 |  | > 16.7 µM | 9.2 ×10⁻⁶ cm/s |  | 0.507 µM | 20.4% | 34.8% | > 30 µM | > 30 µM | 
9 | c1ccc2c(c1)CN[C@@H](CN(Cc1ccc(CNCc3ccncc3)cc1)[C@H]1CCCc3cccnc31)C2 |  | 12.2 µM | 38.5 ×10⁻⁶ cm/s |  | 0.084 µM | 0.882% | 4.39% | > 30 µM | > 30 µM | 
10 | CC1(C)CCC(NC/C=C/CN(C[C@H]2Cc3ccccc3CN2)[C@H]2CCCc3cccnc32)CC1 |  | 2.45 µM |  |  | 0.66 µM | 42% | 7.71% | > 30 µM | > 30 µM | 0.99 µM
11 | CC1(C)CCC(NCCCCN(C[C@H]2Cc3ccccc3CN2)[C@H]2CCCc3cccnc32)CC1 | 0.0776 µM | 19.9 µM | 0.3 ×10⁻⁶ cm/s |  | 0.09 µM | 30.1% | 50% | > 30 µM | > 30 µM | 
12 | C(=C\CN(C[C@H]1Cc2ccccc2CN1)[C@H]1CCCc2cccnc21)/CNCc1cccnc1 |  | 35.1 µM | 24.4 ×10⁻⁶ cm/s |  | 0.453 µM | 1.84% | 0.953% | > 30 µM | > 30 µM | 
13 | NCc1ccccc1CN(C[C@H]1Cc2ccccc2CN1)[C@H]1CCCc2cccnc21 | 0.0508 µM | 1.2 µM | 21.4 ×10⁻⁶ cm/s | 18.4 ×10⁻⁶ cm/s | 0.318 µM | 50.5% | 1.29% | > 30 µM | > 30 µM | 
14 | CC(C)(CN)CCN(C[C@H]1Cc2ccccc2CN1)[C@H]1CCCc2cccnc21 | 0.069 µM | > 16.7 µM | 40.5 ×10⁻⁶ cm/s |  | 0.498 µM | 88.7% | 51.2% | > 30 µM | > 30 µM | > 20 µM
15 | c1ccc2c(c1)CN[C@@H](CN(CCCCN(Cc1ccncc1)Cc1ccncc1)[C@H]1CCCc3cccnc31)C2 | 0.832 µM | 11.4 µM | 77.4 ×10⁻⁶ cm/s | 18 ×10⁻⁶ cm/s | 0.12 µM | 0.521% | 1.55% | > 30 µM | > 30 µM | 0.622 µM
16 | c1cncc(CN(CCCCN(C[C@H]2Cc3ccccc3CN2)[C@H]2CCCc3cccnc32)Cc2cccnc2)c1 | 0.471 µM | 11.5 µM | 43.5 ×10⁻⁶ cm/s | 9.1 ×10⁻⁶ cm/s | 0.348 µM | 0.432% | 1.4% | > 30 µM | > 30 µM | 
17 | C(=C\CN(C[C@H]1Cc2ccccc2CN1)[C@H]1CCCc2cccnc21)/CNCc1ccccn1 |  | 22 µM | 5 ×10⁻⁶ cm/s | 1.8 ×10⁻⁶ cm/s | 0.709 µM | 31.2% | 2.98% | > 30 µM | > 30 µM | 
18 | NC/C=C/CN(C[C@H]1Cc2ccccc2CN1)[C@H]1CCCc2cccnc21 | 0.129 µM | > 16.7 µM | 82.9 ×10⁻⁶ cm/s | 26.4 ×10⁻⁶ cm/s | 0.51 µM | 100% | 10.7% | > 30 µM | > 30 µM | 
19 | c1ccc2c(c1)CN[C@@H](CN(CCCCNCC1CCCCC1)[C@H]1CCCc3cccnc31)C2 | 0.158 µM | > 16.7 µM | 0.9 ×10⁻⁶ cm/s | 2.1 ×10⁻⁶ cm/s | 0.354 µM | 50% | 41.8% | > 30 µM | > 30 µM | 
20 | c1ccc2c(c1)CN[C@@H](CN(CCCCNC1CCNCC1)[C@H]1CCCc3cccnc31)C2 | 0.0634 µM | > 33.3 µM |  | 1.9 ×10⁻⁶ cm/s | 2.61 µM | 100% | 38% | > 30 µM | > 30 µM | 
